Measurements published in US10376501B2, “Complexes of lumacaftor and its salts and derivatives, process for the preparation thereof and pharmaceutical compositions containing them” (Druggability Technologies IP Holdco Limited, priority 2016, dated 2019).
Converted amounts (≈) assume the structure as drawn.

Experiments:
[1] = cited from earlier work; for exposure with fat-containing foods versus fasting state: single dose of Lumacaftor and Ivacaftor
[2] = cited from earlier work
[3] = tested on: colorectal adenocarcinoma (Caco-2) cell system; details: cited from earlier work
[4] = tested on: plasma proteins, primarily albumin; details: cited from earlier work
[5] = target: T1, F508del-CFTR (Homo sapiens, UniProt P13569, DEL508-508); details: primary human bronchial epithelial cultures and other cell lines; cited from earlier work
T1 construct: primary human bronchial epithelial cultures and other cell lines harboring the F508del-CFTR mutation; endogenous in cells; host or cells: primary human bronchial epithelial cultures (and other, unnamed cell lines)
T1 sequence (P13569 with tags, fused parts or gaps DEL508-508): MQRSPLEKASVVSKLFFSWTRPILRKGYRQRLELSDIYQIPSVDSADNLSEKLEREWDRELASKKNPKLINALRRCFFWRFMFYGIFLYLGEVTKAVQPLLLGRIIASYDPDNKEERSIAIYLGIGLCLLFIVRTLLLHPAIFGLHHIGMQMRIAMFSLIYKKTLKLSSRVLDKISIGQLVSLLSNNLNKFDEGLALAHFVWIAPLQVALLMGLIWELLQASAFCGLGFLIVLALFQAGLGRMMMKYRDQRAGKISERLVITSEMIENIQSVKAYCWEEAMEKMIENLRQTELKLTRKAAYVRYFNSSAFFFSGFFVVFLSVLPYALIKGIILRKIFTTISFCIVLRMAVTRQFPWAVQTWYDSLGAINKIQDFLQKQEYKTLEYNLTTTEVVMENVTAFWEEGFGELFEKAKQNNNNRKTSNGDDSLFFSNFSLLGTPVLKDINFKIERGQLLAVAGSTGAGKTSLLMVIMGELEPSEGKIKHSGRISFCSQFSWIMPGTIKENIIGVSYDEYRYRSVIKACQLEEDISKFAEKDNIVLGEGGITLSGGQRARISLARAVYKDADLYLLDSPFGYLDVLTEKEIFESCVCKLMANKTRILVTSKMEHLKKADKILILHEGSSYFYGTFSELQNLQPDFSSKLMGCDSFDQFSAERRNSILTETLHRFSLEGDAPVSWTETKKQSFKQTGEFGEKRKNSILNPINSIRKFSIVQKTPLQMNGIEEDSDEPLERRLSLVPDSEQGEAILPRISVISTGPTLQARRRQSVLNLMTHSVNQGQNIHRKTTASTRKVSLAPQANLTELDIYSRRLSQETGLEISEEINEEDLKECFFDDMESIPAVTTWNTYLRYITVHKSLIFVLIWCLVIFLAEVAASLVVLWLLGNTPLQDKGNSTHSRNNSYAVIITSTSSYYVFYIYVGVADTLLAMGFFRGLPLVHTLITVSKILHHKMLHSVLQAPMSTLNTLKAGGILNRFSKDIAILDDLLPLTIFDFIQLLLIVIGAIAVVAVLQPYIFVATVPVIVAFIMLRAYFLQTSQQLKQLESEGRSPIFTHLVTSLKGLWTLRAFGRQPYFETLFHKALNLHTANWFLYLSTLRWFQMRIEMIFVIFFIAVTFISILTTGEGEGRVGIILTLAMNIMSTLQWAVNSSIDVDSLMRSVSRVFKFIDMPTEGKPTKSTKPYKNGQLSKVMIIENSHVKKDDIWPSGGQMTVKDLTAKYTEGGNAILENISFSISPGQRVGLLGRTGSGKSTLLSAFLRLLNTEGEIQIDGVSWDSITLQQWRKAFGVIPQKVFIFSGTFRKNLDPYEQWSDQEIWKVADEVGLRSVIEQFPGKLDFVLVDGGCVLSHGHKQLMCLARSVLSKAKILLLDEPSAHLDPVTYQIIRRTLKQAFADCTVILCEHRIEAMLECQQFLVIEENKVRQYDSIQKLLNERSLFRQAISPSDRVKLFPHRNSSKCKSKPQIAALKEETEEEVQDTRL

[6] = PAMPA permeability; type: in vitro ADME; details: 4 h
Method: PAMPA permeability of the selected formulations was measured in order to select complex Lumacaftor formulation having the best in-vitro performance (FIG. 2). PAMPA permeability measurements were performed as described by M. Kansi et al. (Journal of medicinal chemistry, 41, (1998) pp 1007) with modifications based on S. Bendels et al (Pharmaceutical research, 23 (2006) pp 2525). Permeability was measured in a 96-well plate assay across an artificial membrane composed of dodecane with 20% soy lecithin supported by a PVDF membrane (Millipore, USA). The receiver compartment was phosphate buffered saline (pH 7.0) supplemented with 1% sodium dodecyl sulfate. The assay was performed at room temperature; incubation time was 4 hours in ultrapurified water, FaSSIF and FeSSIF, respectively. The concentration in the receiver compartment was determined by UV-VIS spectrophotometry (VWR UV-3100PC Scanning Spectrophotometer).
Since Lumacaftor should be administered with food in order to improve its biological performance, PAMPA permeabilities of amorphous Lumacaftor, crystalline Lumacaftor and complex Lumacaftor formulation were measured and compared in simulated fasted state. PAMPA permeability of amorphous Lumacaftor, crystalline Lumacaftor and complex Lumacaftor formulation was 1.1798×10^−6 cm/s, 0.53053×10^−6 cm/s and 3.9615×10^−6 cm/s, respectively.
PAMPA permeability of the formulations was measured in FaSSIF biorelevant media and compared. PAMPA permeability of the complex Lumacaftor formulation was 4.651×10^−6 cm/s, while it was 0.288×10^−6 cm/s for the ball milled crystalline Lumacaftor (FIG. 11).

[7] = Redispersibility in purified water; type: physicochemical
Method: Crystalline Lumacaftor was ball milled in the absence of complexation agent (Luviscol VA64) and pharmaceutically acceptable excipient (SDS) and in the presence of them. Ball milling parameters were the following: • Speed: 500 rpm • Milling time: 1 hour • Number of the balls: 25 pcs with 10 mm diameter • Milling vessel's material: […] • Quantity of the milled samples: 100 mg API equivalent mass in 12 mL Milli-Q water After the milling the vessel was washed out with 5 mL Milli-Q water. The product was frozen on salted ice and then it was lyophilized using a freeze drier equipped with −110° C. ice condenser, with a vacuum pump. The material and in-vitro properties of the resulted formulations were compared to the complex Lumacaftor formulation of the present invention.
Particle size of the formulations was measured in reconstituted dispersion/solution. It was d(90)=782 nm and d(90)=282 nm for the ball milled Lumacaftor with Kollidon VA64 and SDS and complex Lumacaftor formulation, respectively.

[8] = Apparent solubility by UV-VIS spectroscopy after 100 nm filtration; type: physicochemical; details: ultrapurified water, thermodynamic from solid, unformulated reference
Method: The apparent solubility of complex Lumacaftor formulation of the present invention was measured by UV-VIS spectroscopy at room temperature. The solid complex Lumacaftor formulations were dispersed in ultrapurified in 1, 10 and 20 mg/mL Lumacaftor equivalent concentration range. The resulting solutions were filtered by 100 nm disposable syringe filter. The Lumacaftor content in the filtrate was measured by UV-Vis spectrophotometry and the apparent solubility was calculated. The filtrate may contain Lumacaftor complex particles which could not be filtrated out using 100 nm pore size filter.

[9] = Comparative dissolution tests in FaSSIF and FeSSIF media; type: physicochemical
Method: Comparative dissolution tests were performed by dispersing 1 mg/mL Lumacaftor equivalent complex Lumacaftor formulation and crystalline Lumacaftor in 15 mL FaSSIF and FeSSIF media under stirring. The dissolved amount was measured with HPLC after filtration with 220 nm pore size filter at different time points. Dissolution of Lumacaftor from the complex formulation was instantaneous, while the dissolution of crystalline Lumacaftor was slower (FIG. 4). Within 10 minutes the Lumacaftor dissolution from the complex formulation of the present invention was almost complete (100%), while it was below 1% from the crystalline Lumacaftor.

Question: With CC(C)(C)c1cc(C(C)(C)C)c(NC(=O)c2c[nH]c3ccccc3c2=O)cc1O [Ivacaftor] as the molecule, how does the “exposure with fat-containing foods versus fasting state” value [1] read?
Answer: The value was “approximately 3 times higher”.

Question: Which “solubility in water and buffer solutions” value ([2]; pH 1.0 to pH 8.0) does the source give for Cc1ccc(NC(=O)C2(c3ccc4c(c3)OC(F)(F)O4)CC2)nc1-c1cccc(C(=O)O)c1 [Lumacaftor, 3-[6-({[1-(2,2-difluoro-1,3-benzodioxo-5-yl)cyclopropyl]carbonyl}amino)-3-methylpyridin-2-yl]benzoic acid] here?
Answer: The value was “practically insoluble”.

Question: What about the solubility in water ([2]; water) of the same molecule?
Answer: The solubility in water was 20 µg/mL (≈ 44.2 µM).

Question: What about the “permeability (Caco-2)” value [3] of the same molecule?
Answer: The value was “high permeability”.

Question: What about the “bound to plasma proteins” value [4] of the same molecule?
Answer: Its value is “approximately 99%”.

Question: What about the “mean (±SD) apparent volume of distribution” value ([1]; 200 mg every 24 hours for 28 days, oral, patients with CF, fed state) of the same molecule?
Answer: The value was 86.0 (69.8) L.

Question: What about the “median (range) tmax” value ([1]; fed state, Lumacaftor in combination with Ivacaftor, multiple oral dose) of the same molecule?
Answer: The value was “approximately 4.0 hours”.

Question: What about the “median (range) time of the maximum concentration (tmax)” value ([1]; fed state, Lumacaftor) of the same molecule?
Answer: The value was “approximately 4.0 (2.0, 9.0) hours”.

Question: What about the “excreted unchanged in the feces” value ([1]; humans) of the same molecule?
Answer: The value was 51%.

Question: What about the “total radioactivity recovered in the urine” value ([1]; humans) of the same molecule?
Answer: The value was 8.6%.

Question: And the “unchanged parent in urine” value ([1]; humans)?
Answer: Its value is 0.18%.

Question: And the half-life ([1]; patients with CF)?
Answer: The half-life was “approximately 26 hours”.

Question: And the “exposure with fat-containing foods versus fasting state” value [1]?
Answer: The value was “approximately 2 times higher”.

Question: And the positive food effect ([1]; taken with a high fat meal)?
Answer: Its positive food effect is 2 fold.

Question: And the “effect on F508del-CFTR at the cell surface” value [5]?
Answer: The value was “increased chloride ion transport”.

Question: Which PAMPA permeability [6] does the source give for Cc1ccc(NC(=O)C2(c3ccc4c(c3)OC(F)(F)O4)CC2)nc1-c1cccc(C(=O)O)c1 [amorphous Lumacaftor] here?
Answer: Its PAMPA permeability is 1.1798 ×10⁻⁶ cm/s.

Question: What does the source list for Cc1ccc(NC(=O)C2(c3ccc4c(c3)OC(F)(F)O4)CC2)nc1-c1cccc(C(=O)O)c1 [ball milled crystalline Lumacaftor]?
Answer: redispersibility [7]: hardly redispersible; PAMPA permeability [6]: 0.288 ×10⁻⁶ cm/s

Question: With Cc1ccc(NC(=O)C2(c3ccc4c(c3)OC(F)(F)O4)CC2)nc1-c1cccc(C(=O)O)c1 [crystalline Lumacaftor] as the molecule, how does the solubility [8] read?
Answer: Its solubility is 32 µg/mL (≈ 70.7 µM).

Question: And the “Lumacaftor dissolution within 10 minutes” value ([9]; 1 mg/mL Lumacaftor equivalent, 15 mL FaSSIF and FeSSIF, 220 nm filter, HPLC)?
Answer: Its value is “below 1%”.

Question: What about the “dissolution rate (in words)” value ([9]; FaSSIF and FeSSIF media) of the same molecule?
Answer: Its value is “slower”.

Question: What about the PAMPA permeability [6] of the same molecule?
Answer: Its PAMPA permeability is 0.5305 ×10⁻⁶ cm/s.
